Measured values as given in PMC5740381 (Antimicrobial Agents and Chemotherapy, 2017).
“And” between values parts separate entries of the source, which are not always exact repeats. Equal values may be shown once. Read-outs that look alike come from different tables or passages of the source.

Assays:
[1] = test system: HCV subgenomic stable replicons containing proteases from genotypes 1 to 6; assay: Stable HCV replicon assay, several genotypes; assay type: cell-based; conditions: Hepatitis C virus, Huh-7, read-out: EC50, range over stable replicons
Excerpt: (§1) Five of these nine cell lines have been described previously, including those transfected with genotypes 1a H77, 1b Con1, 3a, 4a, and 6a ([28]). […] The genotype 2b and 6e NS3 sequences were each synthetically constructed based on a consensus sequence derived from the alignment of 15 genotype 2b and 4 genotype 6e sequences, respectively. All replicon constructs were bicistronic subgenomic replicons similar to those described by Bartenschlager and coworkers, and the replicon cell lines were generated by introducing these constructs into cells of an Huh-7 human hepatoma-derived cell line ([50]). The inhibitory effect of the PIs on HCV replication in replicon cells was determined in Dulbecco's modified Eagle medium containing 5% fetal bovine serum with or without 40% human plasma (Bioreclamation, Westbury, NY). The EC50s were determined using nonlinear regression curve fitting as described previously ([33]).

MTT cytotoxicity assay = conditions: human
Procedure: For MT4 cells, 10,000 cells/well were plated immediately before the addition of glecaprevir. The rest of the assay was performed as described previously ([33]).

[2] = test system: HCV replicons with genotype 1a patient proteases; assay: Transient replicon assay with proteases from HCV-infected patients; assay type: cell-based; conditions: Hepatitis C virus
Excerpt: (§2) […]. Each of the NS3 gene sequences from genotypes 1, 2, and 4, with the exception of two genotype 2b sequences, was derived from serum or plasma from an HCV-infected patient by bulk PCR amplification, producing a population of sequences representing the viral quasispecies. Two genotype 2b sequences were synthesized based on the consensus sequences of the respective samples. One genotype 3a sequence was synthesized based on a consensus sequence from the sequences available in the Los Alamos HCV sequence database, and another genotype 3a sequence was a clonal sequence derived from a patient sample. The genotype 5a sequence (strain SA13) was synthesized based on the published sequence of the HCV isolate ([48]).
(§3) Transient replicons containing NS3 from clinical samples from HCV genotype 1a- and 1b-infected patients were described previously ([28]). For the transient replicons containing NS3/4A from samples from genotype 3a-infected patients, the first 251 amino acids of NS3 and the region encoding NS4A amino acids 21 to 32 (numbered relative to the NS4A coding region) from these HCV samples were cloned to replace the corresponding residues from the backbone of a genotype 1b Con1 shuttle vector. A genotype 1b Con1 transient replicon shuttle vector was also used to clone the region encoding the first 251 amino acids of NS3 from samples from genotype 4a- or 4d-infected patients in place of the corresponding region from HCV genotype 1b Con1.
(§4) For the analysis of NS3 sequences from patients, we defined a polymorphism to be an amino acid difference in the sequence of a baseline sample relative to the sequence of the appropriate HCV subtype reference sequence: genotype 1a H77 (GenBank accession number NC_004102), genotype 1b Con1 (GenBank accession number AJ238799), genotype 2a JFH-1 (GenBank accession number AB047639), genotype 2b HC-J8 (GenBank accession number D10988), genotype 3a S52 (GenBank accession number GU814263), genotype 4a ED43 (GenBank accession number GU814265), genotype 4d QC382 (GenBank accession number FJ462437), and genotype 5a SA13 (GenBank accession number AF064490). Polymorphisms were assessed at the following NS3 amino acid positions that are associated with resistance to the HCV PI class: 36, 43, 54, 55, 56, 80, 122, 155, 156, and 168. All DNA sequencing was performed by the Sanger sequencing method.

[3] = test system: HCV replicons with genotype 1b patient proteases; assay: as above; assay type: cell-based; conditions: Hepatitis C virus, subtype 1b, no polymorphism, 9 samples
Excerpt: as §2, §3, §4

[4] = test system: HCV replicons with genotype 3a patient proteases; assay: as above; assay type: cell-based; conditions: Hepatitis C virus, subtype 3a, no polymorphism, 2 samples
Excerpt: as §2, §3, §4

[5] = test system: HCV replicons with genotype 4d patient proteases; assay: as above; assay type: cell-based; conditions: Hepatitis C virus, 96 h, subtype 4d, no polymorphism, 3 samples
Excerpt: as §2, §3, §4

[6] = test system: HCV subgenomic stable replicon GT1a H77; assay type: cell-based, Hepatitis C virus; conditions: 0% human plasma, read-out: Mean EC50 ± SD
Excerpt: as §1

[7] = test system: HCV subgenomic stable replicon GT1b Con1; assay type: cell-based, Hepatitis C virus; conditions: 0% human plasma, read-out: Mean EC50 ± SD
Excerpt: as §1

[8] = test system: HCV subgenomic stable replicon GT2a JFH-1; assay type: cell-based, Hepatitis C virus; conditions: GT2a JFH-1 stable replicon, 0% human plasma; read-out: Mean EC50 ± SD
Excerpt: as §1

## CC(C)(C)[C@@H]1NC(=O)O[C@@H]2CCC[C@H]2OC/C=C/C(F)(F)c2nc3ccccc3nc2O[C@@H]2C[C@@H](C(=O)N[C@]3(C(=O)NS(=O)(=O)C4(C)CC4)C[C@H]3C(F)F)N(C2)C1=O [Glecaprevir, (3aR,7S,10S,12R,21E,24aR)-7-tert-butyl-N-[(1R,2R)-2-(difluoromethyl)-1-{[(1-methylcyclopropyl)sulfonyl]carbamoyl}cyclopropyl]-20,20-difluoro-5,8-dioxo-2,3,3a,5,6,7,8,11,12,20,23,24a-dodecahydro-1H,10H-9,12-methanocyclopenta[18,19][1,10,17,3,6]trioxadiazacyclononadecino[11,12-b]quinoxaline-10-carboxamide]
[1]
  EC50: 0.21 to 4.6 nM
MTT cytotoxicity assay
  CC50: 72 µM and 60 µg/mL
[2]; all genotype 1a clinical samples, read-out: Median EC50
  EC50: 0.08 nM
[2]; subtype 1a, Q80K, 5 samples, read-out: EC50 Median
  EC50: 0.09 nM
[2]; subtype 1a, Q80K, 5 samples, read-out: EC50 Range
  EC50: 0.07 to 0.1 nM
[2]; subtype 1a, Q80N, 1 sample, read-out: EC50 Median
  EC50: 0.09 nM
[2]; subtype 1a, no NS3 polymorphism, 5 samples, read-out: EC50 Median
  EC50: 0.06 nM
[2]; subtype 1a, no NS3 polymorphism, 5 samples, read-out: EC50 Range
  EC50: 0.05 to 0.12 nM
[3]; read-out: EC50 Median
  EC50: 0.29 nM
[3]; read-out: EC50 Range
  EC50: 0.2 to 0.68 nM
[4]; read-out: EC50 Median
  EC50: 2.3 nM
[4]; read-out: EC50 Range
  EC50: 0.71 to 3.8 nM
[5]; read-out: EC50 Median
  EC50: 0.17 nM
[5]; read-out: EC50 Range
  EC50: 0.13 to 0.25 nM

## C=C[C@@H]1C[C@]1(NC(=O)[C@@H]1C[C@@H]2CN1C(=O)[C@H](C(C)(C)C)NC(=O)O[C@@H]1C[C@H]1CCCCCc1nc3ccc(OC)cc3nc1O2)C(=O)NS(=O)(=O)C1CC1 [Grazoprevir]
[6]
  EC50: 0.37 ± 0.05 nM
[7]
  EC50: 1 ± 0.17 nM
[8]
  EC50: 8.6 ± 3 nM
